Source: BindingDB's records for doi:10.1016/j.bmcl.2010.03.025 (Wyeth Research, 2010)
pIC50: −log10 of the molar value.

Target: 3-phosphoinositide-dependent protein kinase 1 (PDPK1) (Homo sapiens) (UniProt O15530)
Test: Inhibition of PDK1

COc1cc(Nc2c(C#N)cnc3cc(/C=C/CCN4CCN(C)CC4)c(OC)cc23)c(Cl)cc1Cl [(E)-4-(2,4-dichloro-5-methoxyphenylamino)-6-methoxy-7-(4-(4-methylpiperazin-1-yl)but-1-enyl)quinoline-3-carbonitrile]
pIC50: < 5.00
